Legend:
[1] = test system: T. b. brucei LAB 110 EATRO; test: In vivo antitrypanosomal activity, LAB EATRO mouse infection model; details: 7 days, miniosmotic pump
Description: ^a Animals were treated with surgically implanted miniosmotic pumps
loaded as per manufacturers instructions with MTA, HETA or MFETA suspende

[2] = test system: L5178Y leukemic cells; test: Antitumor effects in L5178Y leukemic mice; assay type: in vivo, DBA/2N mice
Description: The antitumor effects of MFETA were evaluated in DBA/2N mice (Charles River) who received i.p. transplants of 10^6 L1210 leukemic cells or 10^6 L5178Y leukemic cells on day 0 according to protocols described previously by Bernacki et al., Cancer Res. 47, 799, 1987. The increase in life span (% ILS) of treated animals relative to untreated, tumor-bearing animals was used as the measure of their therapeutic effectiveness at specified dose regimens.
^a MFETA was administered i.p. on days 1, 2, 3, 4, 5 following i.p.
implantation of 10^6 tumor cells on day 0.
^b % ILS is the percentage of increase in life span.

[3] = test system: MOLT-4 cells (MTA phosphorylase-containing); test: Growth inhibition of MOLT-4 cells; assay type: cell-based, human; details: Homo sapiens, MOLT-4, 96 h
Description: (§1) L1210, L5178Y and MOLT-4 cell lines were grown in RPMI 1640 and 10% Nu Serum (Collaborative Research Inc., Lexington, Mass.) and CCRF-CEM cells were grown in 10% Horse Serum (Gibco Laboratories, Grand Island, N.Y.) and maintained as previously described for suspension cultures by Pera et al. in Cancer Res. 46, 1148, 1986. Cell cultures (0.3×10^5 cells/ml) were treated with each compound at 0.1 to 1000 μM to determine the concentration that inhibited growth by 50% (IC50) at 48 hr for the L1210 and L5178Y cells and at 96 hr for the CCRF-CEM and MOLT-4 cells. The incubation times allowed approximately 4 cell doublings in each cell line. All compounds were freshly prepared prior to treatment by dissolving in DMSO and diluting in serum-free media. Cells were counted by electron particle counting (Model XF' Coulter Counter; Coulter Electronics, Hialeah, Fla.).
(§2) For each compound, the concentrations required to inhibit cell growth by 50% (IC50 values) are shown in Table 7 for two murine leukemic cell lines, L1210 and L5178Y [MTA phosphorylase-deficient and MTA phosphorylase-containing, respectively] and two human leukemic cell lines, CCRF-CEM and MOLT-4 [MTA phosphorylase-deficient and MTA phosphorylase-containing, respectively]. ETA, MFETA, HETA and PTA had lower IC50 values in the L5178Y cells than in the L1210 cells. […] This differential is consistent with the possibility that, in L5178Y cells, MFETA is cleaved by MTA phosphorylase to the growth inhibitory metabolite, 5-monofluoroethylthioribose-1-phosphate (MFETR-1-P).

[4] = test system: LOX (human melanoma); test: In vitro evaluation, LOX; assay type: cell-based; details: medium B, 72 hours
Description: (§3) In vitro evaluations of the compound 5'-deoxy-5'-(monofluoroethylthio) adenosine (MFETA) were performed using the materials and conditions described in Tables 9 and 10.
(§4) ^(a) Basal medium = RPMI 1640 + 20 mM HEPES + 2 mM Lglutamine
(§5) B = 5% FCS + 5% NuSerum IV

[5] = test system: MALME (human melanoma); test: In vitro evaluation, MALME; assay type: cell-based; details: medium B, 72 hours
Description: as §3, §4, §5

[6] = test system: SH-1 (human melanoma); test: In vitro evaluation, SH-1; assay type: cell-based; details: SH-1, medium B, 72 hours
Description: as §3, §4, §5

[7] = test system: MCF7 (human breast carcinoma); test: In vitro evaluation, MCF7; assay type: cell-based; details: MCF7, medium B, 72 hours, solvent DMSO
Description: as §3
(a) Basal medium + RPMI 1640 + 20 mM HEPES;
B--5% NuSerum IV + 5% FCS,
*Incubation or exposure time is determined by the doubling time of the
cell line such that each is exposed to the compound for 3-4 cell

[8] = test system: Ebey (human melanoma); test: In vitro evaluation, Ebey; assay type: cell-based; details: medium B, 72 hours
Description: as §3, §4, §5

[9] = biological target: T1, T. b. brucei MTA phosphorylase (Trypanosoma brucei, UniProt Q57XS4); test: T. b. brucei MTA phosphorylase substrate assay; assay type: biochemical; details: relative to MTA
T1 construct: MTA or analogs as substrates
Description: ^a MTA phosphorylase was assayed according to Ghoda et al., using 200
μM MTA (saturating) or analogs as substrates. Specific activities of
the dialyzed enzyme preparations were with 50 mM PO4, 104.97 n
moles/mg protein/h; without PO4, 28.27 n moles/mg protein/h. Results
are expressed as percent activity compared to as substrate with and
without PO4, respectively.

[10] = test system: L5178Y cells (MTA phosphorylase-containing); test: Growth inhibition of L5178Y cells; assay type: cell-based, mouse; details: Mus musculus, 48 h
Description: as §1, §2

T1 sequence (Q57XS4 entry or part of it): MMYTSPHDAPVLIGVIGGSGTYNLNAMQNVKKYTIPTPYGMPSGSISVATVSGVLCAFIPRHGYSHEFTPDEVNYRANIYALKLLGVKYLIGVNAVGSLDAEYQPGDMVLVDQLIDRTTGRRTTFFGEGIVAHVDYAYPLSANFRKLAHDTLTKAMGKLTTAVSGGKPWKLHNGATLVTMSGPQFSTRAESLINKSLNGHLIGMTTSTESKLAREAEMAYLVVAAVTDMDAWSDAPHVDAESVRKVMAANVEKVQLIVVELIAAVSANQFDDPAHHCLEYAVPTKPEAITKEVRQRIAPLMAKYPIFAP

## Nc1ncnc2c1ncn2[C@@H]1O[C@H](CSCCF)[C@@H](O)[C@H]1O [MFETA, 5'-deoxy-5'-(monofluoroethylthio)adenosine]
[1]; 10 mg/kg/day
  % Cured: 0%
  MSD (mean survival in days of animals dying of infection): 5.0 days
  Number Cured Total: 0/5
[1]; 25 mg/kg/day
  % Cured: 40%
  MSD (mean survival in days of animals dying of infection): 11.6 days
  Number Cured Total: 2/5
[1]; 50 mg/kg/day
  % Cured: 0%
  MSD (mean survival in days of animals dying of infection): 10.6 days
  Number Cured Total: 0/5
[1]; 100 mg/kg/day
  % Cured: 40%
  MSD (mean survival in days of animals dying of infection): 12.0 days
  Number Cured Total: 2/5
[2]; 10 mg/kg i.p. days 1-5
  % ILS (percentage of increase in life span): 12%
  Mean Death Weight: 19.7 g
  Survival Mean ± SD: 9.0 ± 3 days
  Survival Median: 9 days
  Survival Range: 8 to 10 days
[2]; 50 mg/kg i.p. days 1-5
  % ILS (percentage of increase in life span): 37%
  Mean Death Weight: 21.6 g
  Survival Mean ± SD: 10.0 ± 6 days
  Survival Median: 11 days
  Survival Range: 8 to 11 days
[2]; 100 mg/kg i.p. days 1-5
  % ILS (percentage of increase in life span): 37%
  Mean Death Weight: 23.1 g
  Survival Mean ± SD: 10.5 ± 4 days
  Survival Median: 11 days
  Survival Range: 8 to 12 days
[2]; 200 mg/kg i.p. days 1-5
  % ILS (percentage of increase in life span): 62%
  Mean Death Weight: 20.4 g
  Survival Mean ± SD: 12.4 ± 9 days
  Survival Median: 13 days
  Survival Range: 9 to 14 days
[2]; 300 mg/kg i.p. days 1-5
  % ILS (percentage of increase in life span): -75%
  Mean Death Weight: 18.4 g
  Survival Mean ± SD: 2.6 ± 4 days
  Survival Median: 2 days
  Survival Range: 2 to 4 days
[3]
  IC50: 10 ± 3 µM
[4]
  IC50: 268 ± 13 µM
[5]
  IC50: 364 ± 13 µM
[6]
  IC50: 319 ± 10 µM
[7]
  IC50: 337 µM
[8]
  IC50: 442 ± 13 µM
[9]; +50 mM PO4, 200 μM substrate
  Percent Control Activity: 75.3%
[9]; No PO4, 200 μM substrate
  Percent Control Activity: 109.1%
[10]
  IC50: 60 ± 35 µM
